The values that follow come from PMC9369610, “Pro-Apoptotic and Pro-Autophagic Properties of Cardenolides from Aerial Parts of Pergularia tomentosa” (Molecules, 2022).

One data set deals with MRC5 cells. As to the kind of experiment: MTT cell viability assay, IC50 in MRC5 cells. It is filed as cell-based. The conditions noted are these: Homo sapiens, 24 h, SE less than 10% of value. The procedure: (§1) The human liver hepatocellular carcinoma cell line, HepG2, and the human adenocarcinoma of colon cell line, Caco-2, were cultured in Eagle’s Minimum Essential medium supplemented with 1% (v/v) non-essential amino acids, 0.2 mM L-glutamine, 50 units/mL penicillin, 50 μg/mL streptomycin and 10% (v/v) or 20% (v/v) fetal bovine serum (Sigma Aldrich, Milan, Italy) for HepG2 or Caco-2, respectively. The human embryonal lung fibroblast cell line, MRC5, was cultured in Dulbecco’s Modified Eagle medium (Sigma Aldrich, Milan, Italy) supplemented with 10% (v/v) fetal bovine serum, 0.2 mM L-glutamine, 50 units/mL penicillin and 50 μg/mL streptomycin. HUVEC cells were cultured in endothelial growth medium-2, supplemented with fetal bovine serum (2%), VEGF (0.1%), rH FGF-B (0.4%), rH EGF (0.1%), GA-1000 (0.1%), hydrocortisone (0.04%), R3-IGF-1 (0.1%), heparin (0.1%) and ascorbic acid (0.1%). Cells were maintained at 37 °C in a 5% CO2, 95% air-humidified atmosphere and passaged twice a week. Cell lines were obtained from Interlab Cell Line Collection, Istituto Nazionale per la Ricerca sul Cancro, Genoa, Italy. HUVEC were obtained from Lonza (Milan, Italy).
(§2) An MTT assay was used to analyse cell viability. Cells were seeded in 96 wells at the density of 2 × 10^4/cm^2 and, after 24 h, they were treated with P. tomentosa compounds or with the vehicle (DMSO). After a further 24 h of treatment, 0.5 mg/mL of MTT was added to the cell medium and incubated for 1.5 h at 37 °C. The resulting formazan crystals were dissolved in 100 μL of DMSO and absorbances were measured at 595 nm and 655 nm. The background signals at 655 nm were subtracted from 595 nm signals, and data were expressed as a percent of cell viability. The concentration of each compound that is required for 50% inhibition in vitro (IC50) was calculated as described in Husseini et al.. IC50 values were obtained for Caco-2, HepG2 and MRC5 cells by performing MTT assays with concentrations ranging from 0.01 μg/mL to 5 μg/mL.

In a further data set the test system is LC3 in HepG2 cells. As to the kind of experiment: Western blot of LC3 (LC3-I and LC3-II). Type of data set: cell-based, human. The note with it: HepG2, 1 μM, 24 h. The procedure:
(§3) To analyse the protein levels of p53, caspase-3, GRP78, LC3 and p62, HepG2 cells were treated with P. tomentosa compounds (1 or 2 μM) or with DMSO for the indicated times; then, Western blot analyses were performed. Briefly, cells were lysed in RIPA buffer (20 mM Tris-HCl, pH 7.5, 150 mM NaCl, 1 mM EDTA, 1 mM dithiothreitol, 0.1% sodium dodecyl sulphate, 1% triton X-100, 1 mM orthovanadate, and a cocktail of inhibitors (Sigma-Aldrich, Milan, Italy)). After separation on a sodium dodecyl sulphate-polyacrylamide gel electrophoresis and transfer to a poly-vinylidene fluoride membrane (Euroclone, Milan, Italy), the following primary antibodies were used, at a dilution of 1:1000 in tris-buffered saline containing 1% non-fat dry milk, overnight at 4 °C: mouse anti-p53 antibody, mouse anti-MAP LC3 β antibody, mouse anti-p62 antibody (DBA, Milan, Italy), mouse anti-GRP78 antibody, and mouse anti-caspase 3 antibody (Thermo Fisher Scientific, Milan, Italy). For normalisation, a mouse anti-GAPDH antibody (Microtech, Naples, Italy) was used.

In the next data set the test system is p53 in HepG2 cells. Briefly: Western blot analysis of p53 expression. Type of data set: cell-based, human. The note with it: HepG2, 1 μM, 24 h. As for the experimental part:
as §3

In data set [1] the test system is HepG2 cells. Briefly: BrdU incorporation (proliferation) assay. It is filed as cell-based, human. The note with it: HepG2, 1 μM, 24 h. The procedure:
Cell proliferation was analysed by a BrdU (Roche Diagnostics SpA, Monza, Italy) incorporation assay, as previously described. Briefly, HepG2 cells, seeded at adensity of 3 × 10^3/cm^2 on round glass cover slips, were treated for 24 h with P. tomentosa compounds at 1 μM. Then, BrdU was added to cell medium (final concentration, 100 μM) for 1 h. Cells were fixed (in 3% paraformaldehyde, 10 min), permeabilised (in 0.2% Triton X-100, 5 min) and treated with HCl 1.5 N (5 min). Finally, cover slips were incubated with a monoclonal antibody against BrdU (Sigma-Aldrich, Milan, Italy), 1:100, and with a TRITC-conjugated secondary antibody, 1:100. After staining with Hoechst, cover slips were mounted with Mowiol (Sigma, Milan, Italy). […] Images were acquired with Axiocam MRc5 and processed with ImageJ Launcher. The number of cells into S-phase was expressed as the ratio between the number of cells incorporating BrdU and the total number of cells.

Data set [2] deals with HepG2 cells. Briefly: MTT cell viability assay, IC50 in HepG2 cells. Type of data set: cell-based. The conditions noted are these: Homo sapiens, 24 h, SE less than 10% of value. The procedure: as §1, §2
The subject of data set [3] is HepG2 cells. Briefly: Scratch-wound-healing assay. It is filed as cell-based, human. The conditions noted are these: HepG2, 1 μM, 24, 48 and 72 h. The procedure:
Cells were seeded at a density of 5 × 10^4 cells/well in 24-well plates and allowed to grow for 72 h, reaching confluence. Mitomycin C (10 μg/mL) was added to inhibit proliferation, and then a sterile 2–10 μL pipette tip was used to perform a vertical scratch in the monolayer of each well. Detached cells were removed by washing with phosphate-buffered saline. Then, 300 μL of fresh medium containing P. tomentosa compounds (1 μM) or vehicle was added to each well and incubated for 72 h. Images of migrating cells were taken at 0, 24, 48 and 72 h, by using an Olympus CKX41 fluorescent microscope (Olympus Italia srl, Segrate, Italy) and elaborated by the ImageJ software. For each scratch, wound width was calculated as the average distance between the edges in four different sites. Then, reductions in wound wights at 24, 48 and 72 h were expressed as % of the width at time zero.

For data set [4], the system named is HepG2, Caco-2, MRC5 and HUVEC cells. Briefly: MTT assay, comparison of cytotoxic effects at 1 μM on four cell types. It is filed as cell-based, human. The conditions noted are these: 24 h, Caco-2, HepG2, MRC5, HUVEC.
Source text: We focused attention on 12β,6′-dihydroxycalotropin (1), 16α-hydroxycalotropin (2), 12β-hydroxycalactin (3), calotropin (4), and calactin (5), among those described by Hosseini et al., and tested their cytotoxic activity by a 3-(4,5-dime-thylthiazol-2-yl)-2,5-diphenylte-tetrazolium bromide (MTT) assay on two cancer cell lines (HepG2 and Caco-2), not previously employed, on an immortalised nontumoral cell line (MRC5) and normal primary cells (HUVEC).
Figure 2 Comparison of cytotoxic effects of P. tomentosa compounds on cancer cell lines (Caco-2 and HepG2), on an immortalised cell line (MRC5) and normal cells (HUVEC). Cells were treated for 24 h with 1 μM of each compound. Residual viability was measured by the MTT assay. Values are the means ± standard error (SE) of three independent experiments performed in triplicate. Statistical analysis was performed using the Student’s t-test. * p < 0.05 and ** p < 0.01 vs. cells treated with the vehicle (DMSO).
as §1, §2

Molecules are shown by their SMILES.

On to `C[C@@H]1C[C@@H](O)[C@]2(O)O[C@@H]3C[C@@]4(C=O)[C@@H](CC[C@@H]5[C@@H]4CC[C@]4(C)[C@@H](C6=CC(=O)OC6)CC[C@]54O)C[C@H]3O[C@@H]2O1` [Compound 5, calactin], for which the IC50 in the data set with MRC5 cells worked out at 990 nM. In the data set with LC3 in HepG2 cells, the LC3-I level result is given as “reduction in the LC3-I form” and the LC3-II level entry is recorded as “more marked”. The p53 protein level result with p53 in HepG2 cells is listed as “clearly decreased the p53 amount”. Besides, the “effect on BrdU incorporation / cell cycle progression” value with HepG2 cells [1] is “significantly affected cell cycle progression”. Besides, the IC50 in the data set with HepG2 cells [2] turned out to be 127 nM. The “effect on wound closure” value in the data set with HepG2 cells [3] was “interfered with the wound closure after 48 and 72 h”. Further, the “relative cytotoxicity (residual viability, MTT)” value in data set [4] is “most cytotoxic”.
